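Following 48 hours of exposure in 96-well plates, responses at five concentrations were used to interpolate endpoints linearly. GI50 = concentration required for 50% inhibition of growth. TGI marks complete inhibition of growth.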
Columns and labels:
Experiment in all cases: inhibition of tumour cell growth, NCI panel, 48 h
HCT-116 colon = system: HCT-116 colon
MOLT-4 leukemia = system: MOLT-4 leukemia
MDA-MB-435 = system: MDA-MB-435
786-0 renal = system: 786-0 renal
PC-3 prostate = system: PC-3 prostate
SNB-75 CNS = system: SNB-75 CNS
SNB-19 CNS = system: SNB-19 CNS
HCC-2998 colon = system: HCC-2998 colon
OVCAR-5 ovarian = system: OVCAR-5 ovarian
MALME-3M melanoma = system: MALME-3M melanoma
CCRF-CEM leukemia = system: CCRF-CEM leukemia
UACC-257 melanoma = system: UACC-257 melanoma
HT29 colon = system: HT29 colon
ACHN renal = system: ACHN renal
SF-539 CNS = system: SF-539 CNS
SK-MEL-5 melanoma = system: SK-MEL-5 melanoma
SR leukemia = system: SR leukemia
EKVX NSCLC = system: EKVX NSCLC
MDA-MB-231 breast = system: MDA-MB-231 breast
RPMI-8226 leukemia = system: RPMI-8226 leukemia
CAKI-1 renal = system: CAKI-1 renal
DU-145 prostate = system: DU-145 prostate
IGROV1 ovarian = system: IGROV1 ovarian
MCF7 breast = system: MCF7 breast
A549 NSCLC = system: A549 NSCLC
HOP-62 NSCLC = system: HOP-62 NSCLC
SK-MEL-28 melanoma = system: SK-MEL-28 melanoma
HCT-15 colon = system: HCT-15 colon
SF-295 CNS = system: SF-295 CNS
SK-MEL-2 melanoma = system: SK-MEL-2 melanoma
NCI-H226 lung = system: NCI-H226 lung
OVCAR-3 ovarian = system: OVCAR-3 ovarian
SK-OV-3 ovarian = system: SK-OV-3 ovarian
UO-31 renal = system: UO-31 renal
U251 CNS = system: U251 CNS
SW-620 colon = system: SW-620 colon
KM12 colon = system: KM12 colon
NCI-H23 lung = system: NCI-H23 lung
HL-60(TB) leukemia = system: HL-60(TB) leukemia
HOP-92 NSCLC = system: HOP-92 NSCLC
OVCAR-4 ovarian = system: OVCAR-4 ovarian
BT-549 breast = system: BT-549 breast
NCI/ADR-RES ovarian = system: NCI/ADR-RES ovarian
UACC-62 melanoma = system: UACC-62 melanoma
K-562 leukemia = system: K-562 leukemia
RXF 393 renal = system: RXF 393 renal
TK-10 renal = system: TK-10 renal
COLO 205 colon = system: COLO 205 colon
LOX IMVI melanoma = system: LOX IMVI melanoma
NCI-H460 lung = system: NCI-H460 lung
HS 578T breast = system: HS 578T breast
SN12C renal = system: SN12C renal
T-47D breast = system: T-47D breast
A498 renal = system: A498 renal
SF-268 CNS = system: SF-268 CNS
M14 melanoma = system: M14 melanoma
OVCAR-8 ovarian = system: OVCAR-8 ovarian
NCI-H522 lung = system: NCI-H522 lung

## C#Cc1nc(C2=C(C)C(OC(C)=O)/C(=N/OC(C)=O)C2)cs1 (stereo not given)
HCT-116 colon
  GI50: 13.5 µM
  TGI: 30.4 µM
MOLT-4 leukemia
  GI50: 1.85 µM
  TGI: 4.69 µM
MDA-MB-435
  GI50: 34.5 µM
  TGI: > 77.3 µM
786-0 renal
  GI50: 1.83 µM
  TGI: 3.33 µM
PC-3 prostate
  GI50: 4.66 µM
  TGI: > 42.4 µM
SNB-75 CNS
  TGI: > 24.2 µM
SNB-19 CNS
  GI50: > 59.5 µM
  TGI: > 100 µM
HCC-2998 colon
  GI50: 23.2 µM
  TGI: > 60.9 µM
OVCAR-5 ovarian
  GI50: 7.36 µM
  TGI: > 41.9 µM
MALME-3M melanoma
  GI50: 1.81 µM
  TGI: 4.86 µM
CCRF-CEM leukemia
  GI50: 0.188 µM
  TGI: 0.478 µM
UACC-257 melanoma
  GI50: 17.6 µM
  TGI: 62.8 µM
HT29 colon
  GI50: 2.27 µM
  TGI: 6.67 µM
ACHN renal
  GI50: 0.831 µM
  TGI: 7.17 µM
SF-539 CNS
  GI50: 0.687 µM
  TGI: 1.87 µM
SK-MEL-5 melanoma
  GI50: 19.5 µM
  TGI: 56.1 µM
SR leukemia
  GI50: 0.228 µM
  TGI: 0.649 µM
EKVX NSCLC
  GI50: 12 µM
  TGI: > 61.4 µM
MDA-MB-231 breast
  GI50: 4.62 µM
  TGI: > 20.6 µM
RPMI-8226 leukemia
  GI50: 0.312 µM
  TGI: 1.17 µM
CAKI-1 renal
  GI50: 4.66 µM
  TGI: 11.7 µM
DU-145 prostate
  GI50: 11.5 µM
  TGI: > 70.3 µM
IGROV1 ovarian
  GI50: 0.745 µM
  TGI: 2.09 µM
MCF7 breast
  GI50: 6.75 µM
  TGI: > 76.6 µM
A549 NSCLC
  GI50: 5.39 µM
  TGI: > 100 µM
HOP-62 NSCLC
  GI50: 9.24 µM
  TGI: > 23.6 µM
SK-MEL-28 melanoma
  GI50: 17.1 µM
  TGI: 39 µM
HCT-15 colon
  GI50: 6.21 µM
  TGI: 23.8 µM
SF-295 CNS
  GI50: 1.84 µM
  TGI: 3.67 µM
SK-MEL-2 melanoma
  GI50: 27.6 µM
  TGI: > 69.7 µM
NCI-H226 lung
  GI50: > 100 µM
  TGI: > 100 µM
OVCAR-3 ovarian
  GI50: 2.7 µM
  TGI: 7.6 µM
SK-OV-3 ovarian
  GI50: 6.16 µM
  TGI: 20.6 µM
UO-31 renal
  GI50: 0.164 µM
  TGI: 0.299 µM
U251 CNS
  GI50: 4.58 µM
  TGI: > 26.9 µM
SW-620 colon
  GI50: 13.3 µM
  TGI: 30.4 µM
KM12 colon
  GI50: 47.4 µM
  TGI: > 100 µM
NCI-H23 lung
  GI50: 1.26 µM
  TGI: 4.86 µM
HL-60(TB) leukemia
  GI50: 0.587 µM
  TGI: 1.32 µM
HOP-92 NSCLC
  GI50: 1.73 µM
  TGI: 3.24 µM
OVCAR-4 ovarian
  GI50: 6.65 µM
  TGI: 22.1 µM
BT-549 breast
  GI50: 5.65 µM
  TGI: 13 µM
NCI/ADR-RES ovarian
  GI50: 4.98 µM
  TGI: > 21.3 µM
UACC-62 melanoma
  GI50: 13.7 µM
  TGI: 29.4 µM
K-562 leukemia
  GI50: 11.8 µM
  TGI: 53.5 µM
RXF 393 renal
  GI50: 2.62 µM
  TGI: 6.03 µM
TK-10 renal
  GI50: 28.3 µM
  TGI: 56.9 µM
COLO 205 colon
  GI50: 20.1 µM
  TGI: > 55.7 µM
LOX IMVI melanoma
  GI50: 0.0198 µM
  TGI: 0.0453 µM
NCI-H460 lung
  GI50: > 28.5 µM
  TGI: > 100 µM
HS 578T breast
  GI50: 8.7 µM
  TGI: > 25.9 µM
SN12C renal
  GI50: 10.1 µM
  TGI: 25.4 µM
T-47D breast
  GI50: 7.49 µM
  TGI: 30.4 µM
A498 renal
  GI50: 27.1 µM
  TGI: 50.4 µM
SF-268 CNS
  GI50: 9.78 µM
  TGI: 45.7 µM
M14 melanoma
  GI50: 21.3 µM
  TGI: > 80 µM
OVCAR-8 ovarian
  GI50: 9.99 µM
  TGI: 41.6 µM
NCI-H522 lung
  GI50: 0.429 µM
  TGI: 0.937 µM
